Reference: ChEMBL document CHEMBL1138659 (J Med Chem, 2004)

Columns and labels:
[1] = organism: Rattus norvegicus; assay: Threshold minimal effective dose in rats; format: functional
[2] = test system: Rattus norvegicus; assay: In vivo insulin (10 units) response in rats at 10 mg/kg dose; format: functional
[3] = target: T1, Glycogen synthase kinase-3 beta (Homo sapiens, UniProt P49841); assay: Inhibition of Glycogen synthase kinase-3 beta dependent Tau protein serine-396 phosphorylation in human SY5Y cells; format: functional, cell-based
[4] = test system: Rattus norvegicus; assay: In vivo glucose reduction in rats at 10 mg/kg dose; format: functional; design: scale not given: the % may be the effect or the level left
[5] = target: T1, Glycogen synthase kinase-3 beta
Description: Inhibition of human Glycogen synthase kinase-3 beta

[6] = target: cAMP-dependent protein kinase catalytic subunit beta (Homo sapiens, UniProt P22694); assay: Inhibition of human Protein kinase A beta
[7] = target: RAC-alpha serine/threonine-protein kinase (Homo sapiens, UniProt P31749); assay: Inhibition of human Akt1
[8] = target: Protein kinase C beta type (Homo sapiens, UniProt P05771); assay: Inhibition of human Protein kinase C beta 2
[9] = target: Cyclin-dependent kinase 4 (Homo sapiens, UniProt P11802); assay: Inhibition of human Cyclin-dependent kinase 4
[10] = target: TGF-beta receptor type-2 (Homo sapiens, UniProt P37173); assay: Inhibition of human TGF-beta type II receptor
[11] = Compound was tested for oral AUC at 0 to 24 hours; format: ADME; design: time < 24 hr, route oral; settings: rat
[12] = Compound was tested for in vivo clearance; format: ADME, organism-based; settings: rat
[13] = Compound was tested for volume distribution; format: ADME; settings: rat; read-out: Volume distribution
[14] = Half life in oral, hours; format: ADME, organism-based; settings: rat, in vivo
[15] = Half life in in vivo, hours; format: ADME, organism-based; settings: rat
[16] = Oral bioavailability; format: ADME, organism-based; settings: rat, in vivo
[17] = target: MAP kinase p38 (Homo sapiens, UniProt O15264+Q15759+Q16539+P53778); assay: Inhibition of human Mitogen-activated protein kinase p38
[18] = target: Vascular endothelial growth factor receptor 2 (Homo sapiens, UniProt P35968); assay: Inhibition of human Vascular endothelial growth factor receptor 2
[19] = target: Mitogen-activated protein kinase kinase kinase 20 (Homo sapiens, UniProt Q9NYL2)
[20] = target: Cyclin-dependent kinase 2 (Homo sapiens, UniProt P24941); assay: Inhibition of human Cyclin-dependent kinase 2

Chain of Vascular endothelial growth factor receptor 2 (P35968 whole entry): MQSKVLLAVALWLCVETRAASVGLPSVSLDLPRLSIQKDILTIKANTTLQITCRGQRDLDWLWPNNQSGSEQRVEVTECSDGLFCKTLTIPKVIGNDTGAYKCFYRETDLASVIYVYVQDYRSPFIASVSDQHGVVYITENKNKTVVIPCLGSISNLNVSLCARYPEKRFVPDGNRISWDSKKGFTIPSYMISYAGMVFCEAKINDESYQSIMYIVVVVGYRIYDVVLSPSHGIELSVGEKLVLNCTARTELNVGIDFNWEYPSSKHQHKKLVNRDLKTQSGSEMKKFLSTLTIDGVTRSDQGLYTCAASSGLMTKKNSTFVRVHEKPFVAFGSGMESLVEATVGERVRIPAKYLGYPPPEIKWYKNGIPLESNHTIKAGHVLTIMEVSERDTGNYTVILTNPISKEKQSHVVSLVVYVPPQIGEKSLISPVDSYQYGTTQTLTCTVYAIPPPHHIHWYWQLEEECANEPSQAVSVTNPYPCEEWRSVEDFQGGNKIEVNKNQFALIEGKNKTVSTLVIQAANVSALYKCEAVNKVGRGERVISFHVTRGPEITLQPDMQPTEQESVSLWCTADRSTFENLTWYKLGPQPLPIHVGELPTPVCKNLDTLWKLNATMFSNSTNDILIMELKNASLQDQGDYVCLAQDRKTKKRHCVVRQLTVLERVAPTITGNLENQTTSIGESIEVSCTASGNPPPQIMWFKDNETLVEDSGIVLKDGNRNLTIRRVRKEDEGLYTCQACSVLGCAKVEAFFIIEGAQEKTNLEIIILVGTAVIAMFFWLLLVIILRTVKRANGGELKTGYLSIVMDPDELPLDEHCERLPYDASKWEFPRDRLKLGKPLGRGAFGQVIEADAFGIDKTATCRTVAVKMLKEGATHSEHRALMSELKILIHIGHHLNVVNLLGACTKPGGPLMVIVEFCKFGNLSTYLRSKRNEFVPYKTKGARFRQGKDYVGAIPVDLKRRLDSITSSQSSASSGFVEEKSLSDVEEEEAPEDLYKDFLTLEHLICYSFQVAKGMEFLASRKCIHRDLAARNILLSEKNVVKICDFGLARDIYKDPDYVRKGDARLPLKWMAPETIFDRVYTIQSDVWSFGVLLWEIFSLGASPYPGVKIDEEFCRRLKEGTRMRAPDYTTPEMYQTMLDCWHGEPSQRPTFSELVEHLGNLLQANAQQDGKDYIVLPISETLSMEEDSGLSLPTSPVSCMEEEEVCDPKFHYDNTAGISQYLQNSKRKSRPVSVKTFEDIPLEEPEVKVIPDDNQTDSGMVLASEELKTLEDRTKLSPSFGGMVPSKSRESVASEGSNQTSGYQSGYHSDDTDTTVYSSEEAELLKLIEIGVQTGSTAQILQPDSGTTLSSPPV
Chain of Protein kinase C beta type (P05771 whole entry): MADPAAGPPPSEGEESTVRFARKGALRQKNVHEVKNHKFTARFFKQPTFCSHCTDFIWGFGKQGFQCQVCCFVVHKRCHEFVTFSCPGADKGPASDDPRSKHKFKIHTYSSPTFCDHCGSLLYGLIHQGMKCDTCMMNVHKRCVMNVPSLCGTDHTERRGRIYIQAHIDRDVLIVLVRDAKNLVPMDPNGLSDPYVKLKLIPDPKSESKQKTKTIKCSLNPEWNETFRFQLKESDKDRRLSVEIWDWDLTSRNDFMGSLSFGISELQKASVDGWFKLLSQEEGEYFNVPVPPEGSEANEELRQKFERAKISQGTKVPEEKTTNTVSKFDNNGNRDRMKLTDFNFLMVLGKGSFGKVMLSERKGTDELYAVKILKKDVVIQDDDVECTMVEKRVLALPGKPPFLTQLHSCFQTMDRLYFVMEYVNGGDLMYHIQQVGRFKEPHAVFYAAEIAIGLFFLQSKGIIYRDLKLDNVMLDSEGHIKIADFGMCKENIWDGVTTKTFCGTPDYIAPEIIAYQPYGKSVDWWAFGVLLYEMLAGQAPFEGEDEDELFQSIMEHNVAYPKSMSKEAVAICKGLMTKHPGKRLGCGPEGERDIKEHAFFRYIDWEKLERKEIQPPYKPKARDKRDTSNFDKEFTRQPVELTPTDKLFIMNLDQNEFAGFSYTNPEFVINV
T1 sequence (P49841 whole entry): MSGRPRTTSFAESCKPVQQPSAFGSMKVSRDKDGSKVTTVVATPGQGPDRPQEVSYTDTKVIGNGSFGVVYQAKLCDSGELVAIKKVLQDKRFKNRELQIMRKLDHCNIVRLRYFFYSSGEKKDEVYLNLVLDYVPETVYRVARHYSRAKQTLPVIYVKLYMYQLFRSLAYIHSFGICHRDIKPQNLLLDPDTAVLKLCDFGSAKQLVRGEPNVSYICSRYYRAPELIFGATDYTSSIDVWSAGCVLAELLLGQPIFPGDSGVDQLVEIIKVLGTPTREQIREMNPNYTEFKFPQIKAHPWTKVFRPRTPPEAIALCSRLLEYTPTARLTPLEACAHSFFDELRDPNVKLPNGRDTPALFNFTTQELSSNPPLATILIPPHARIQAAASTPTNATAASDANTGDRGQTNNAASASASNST
Chain of TGF-beta receptor type-2 (P37173 whole entry): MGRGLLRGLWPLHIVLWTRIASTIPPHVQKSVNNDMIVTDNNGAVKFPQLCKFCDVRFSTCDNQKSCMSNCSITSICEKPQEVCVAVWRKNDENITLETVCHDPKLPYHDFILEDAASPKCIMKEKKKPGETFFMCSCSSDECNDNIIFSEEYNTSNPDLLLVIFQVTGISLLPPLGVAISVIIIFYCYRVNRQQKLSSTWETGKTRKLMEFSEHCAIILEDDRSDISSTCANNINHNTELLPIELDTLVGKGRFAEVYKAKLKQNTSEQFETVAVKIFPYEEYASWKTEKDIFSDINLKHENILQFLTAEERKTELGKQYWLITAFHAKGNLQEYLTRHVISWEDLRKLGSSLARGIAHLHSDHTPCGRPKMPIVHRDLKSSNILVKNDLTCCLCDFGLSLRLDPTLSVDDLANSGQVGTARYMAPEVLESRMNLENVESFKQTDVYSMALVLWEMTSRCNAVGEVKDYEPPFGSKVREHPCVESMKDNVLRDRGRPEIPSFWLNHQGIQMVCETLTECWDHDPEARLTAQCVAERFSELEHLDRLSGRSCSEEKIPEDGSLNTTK
Chain of Cyclin-dependent kinase 4 (P11802 whole entry): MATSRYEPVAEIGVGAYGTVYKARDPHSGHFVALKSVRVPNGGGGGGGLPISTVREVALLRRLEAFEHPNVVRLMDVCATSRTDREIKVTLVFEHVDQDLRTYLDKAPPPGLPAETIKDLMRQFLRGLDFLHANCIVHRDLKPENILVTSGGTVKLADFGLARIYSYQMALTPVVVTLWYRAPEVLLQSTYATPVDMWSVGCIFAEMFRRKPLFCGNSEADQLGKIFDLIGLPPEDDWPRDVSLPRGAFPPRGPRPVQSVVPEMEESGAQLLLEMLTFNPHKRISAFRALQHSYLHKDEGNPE
Chain of RAC-alpha serine/threonine-protein kinase (P31749 whole entry): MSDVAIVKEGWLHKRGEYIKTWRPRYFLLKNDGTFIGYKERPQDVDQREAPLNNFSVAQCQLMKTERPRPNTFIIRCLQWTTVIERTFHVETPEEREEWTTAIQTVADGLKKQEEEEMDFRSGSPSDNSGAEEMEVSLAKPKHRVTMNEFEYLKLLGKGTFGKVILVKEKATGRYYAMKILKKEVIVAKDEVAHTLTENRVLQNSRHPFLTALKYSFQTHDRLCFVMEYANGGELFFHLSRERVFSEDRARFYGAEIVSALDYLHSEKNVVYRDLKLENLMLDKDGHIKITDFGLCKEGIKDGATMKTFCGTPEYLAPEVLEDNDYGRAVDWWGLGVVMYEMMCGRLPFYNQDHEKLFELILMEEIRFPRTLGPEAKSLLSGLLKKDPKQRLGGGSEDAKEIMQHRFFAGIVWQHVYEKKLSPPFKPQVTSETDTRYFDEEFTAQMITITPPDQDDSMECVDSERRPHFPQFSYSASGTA
Chain of Mitogen-activated protein kinase kinase kinase 20 (Q9NYL2 whole entry): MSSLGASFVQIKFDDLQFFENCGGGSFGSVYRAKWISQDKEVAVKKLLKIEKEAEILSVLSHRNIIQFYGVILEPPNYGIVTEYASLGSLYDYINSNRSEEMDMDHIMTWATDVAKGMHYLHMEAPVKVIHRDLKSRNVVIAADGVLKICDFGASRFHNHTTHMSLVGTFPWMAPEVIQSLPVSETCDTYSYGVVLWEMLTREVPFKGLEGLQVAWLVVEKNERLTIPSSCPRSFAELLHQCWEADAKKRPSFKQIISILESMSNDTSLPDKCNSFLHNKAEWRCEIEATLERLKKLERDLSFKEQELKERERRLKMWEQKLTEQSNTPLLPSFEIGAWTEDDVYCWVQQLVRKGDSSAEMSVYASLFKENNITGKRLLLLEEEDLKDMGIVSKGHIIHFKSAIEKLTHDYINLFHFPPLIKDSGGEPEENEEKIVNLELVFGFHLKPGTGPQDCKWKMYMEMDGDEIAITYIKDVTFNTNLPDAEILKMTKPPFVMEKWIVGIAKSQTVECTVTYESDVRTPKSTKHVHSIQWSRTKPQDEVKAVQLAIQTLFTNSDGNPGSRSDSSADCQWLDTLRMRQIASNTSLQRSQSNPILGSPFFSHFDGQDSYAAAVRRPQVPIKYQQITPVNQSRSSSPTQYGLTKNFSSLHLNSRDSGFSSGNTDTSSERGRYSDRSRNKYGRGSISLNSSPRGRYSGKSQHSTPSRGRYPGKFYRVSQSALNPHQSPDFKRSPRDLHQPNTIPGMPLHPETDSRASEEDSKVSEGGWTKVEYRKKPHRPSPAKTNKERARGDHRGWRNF

Compound | TMED [1] | Response [2] | IC50 [3] | Activity [4] | IC50 [5] | IC50 [6] | IC50 [7] | IC50 [8] | IC50 [9] | IC50 [10] | AUC [11] | clearance [12] | Vd [13] | half-life [14] | half-life [15] | bioavailability [16] | IC50 [17] | IC50 [18] | IC50 [19] | IC50 [20]
O=C1NC(=O)C(c2cnc3ccccn23)=C1c1cn2c3c(cccc13)CN(C(=O)N1CCOCC1)CC2 | 1.44 mg/kg | 119% | 0.0026 µM | 78% | 0.0013 µM | > 20 µM | > 20 µM | 1.1 µM | 1.7 µM | 2 µM | – | – | – | – | – | – | – | – | – | –
O=C1NC(=O)C(c2cnc3ccccn23)=C1c1cn2c3c(cc(F)cc13)CN(C(=O)N1CCCCC1)CC2 [LY-2090314] | 1.5 mg/kg | 124% | 0.0007 µM | 61% | 0.0011 µM | > 20 µM | > 20 µM | 0.42 µM | 1.8 µM | 1.2 µM | 3550 ng·h/mL | 12 mL/min/kg | 1 L | 2.8 h | 1.1 h | 23% | – | – | – | –
CN(C)C(=O)N1CCn2cc(C3=C(c4cnc5ccccn45)C(=O)NC3=O)c3cccc(c32)C1 | – | 104% | 0.012 µM | 53% | 0.0016 µM | > 20 µM | > 20 µM | 1 µM | 1.5 µM | > 20 µM | – | – | – | – | – | – | > 20 µM | > 20 µM | > 20 µM | 2.1 µM
CC(C)OC(=O)N1CCn2cc(C3=C(c4cnc5ccccn45)C(=O)NC3=O)c3cccc(c32)C1 | 4.27 mg/kg | 105% | 0.015 µM | 58% | 0.0013 µM | > 20 µM | > 20 µM | 0.8 µM | 3.3 µM | > 20 µM | – | – | – | – | – | – | – | > 20 µM | > 20 µM | 3.4 µM
O=C1NC(=O)C(c2cnc3ccccn23)=C1c1cn2c3c(cccc13)CN(C(=O)N1CCCCC1)CC2 | 2.22 mg/kg | 124% | 0.0016 µM | 69% | 0.002 µM | – | > 20 µM | 0.56 µM | 4.8 µM | 3.1 µM | – | – | – | – | – | – | > 20 µM | > 20 µM | – | 5.4 µM
